Reference: ChEMBL document CHEMBL3785054, “Identification of inhibitors for vascular endothelial growth factor receptor by using dynamic combinatorial chemistry” (Bioorg Med Chem Lett, 2016)
Activity calls are given as the source filed them. The rule behind the calls is not given here.

Key:
[1] = Cytotoxicity against human BGC823 cells by MTT assay; type: functional, cell-based; details: BGC-823
HT-29 = test: Cytotoxicity against human HT-29 cells by MTT assay; type: functional, cell-based
[2] = Cytotoxicity against human PC3 cells by MTT assay; type: functional, cell-based; details: PC-3
MDA-MB-435 = test: Cytotoxicity against human MDA-MB-435 cells by MTT assay; type: functional, cell-based
A549 = test: Cytotoxicity against human A549 cells by MTT assay; type: functional, cell-based
Chorioallantoic membrane = test: Antiangiogenic activity in chicken chorioallantoic membrane assessed as inhibition of vascular branch formation after 3 days; type: functional; details: Gallus gallus
[3] = Cytotoxicity against human […] cells by MTT assay; type: functional, cell-based

## O=C(Nc1ccc2c(/C=N/c3ccccn3)n[nH]c2c1)Nc1nncs1
[1]
  IC50: > 100 µM
HT-29
  IC50: 9.4 µM
[2]
  IC50: > 100 µM
MDA-MB-435
  IC50: 4.8 µM
A549
  IC50: 56.4 µM
Chorioallantoic membrane
  inhibition: Active
[3]
  IC50: > 100 µM

## O=C(Nc1ccc2c(/C=N/c3cccnc3)n[nH]c2c1)Nc1nncs1
[1]
  IC50: 67.2 µM
HT-29
  IC50: 12.1 µM
[2]
  IC50: 7.8 µM
MDA-MB-435
  IC50: 55.6 µM
A549
  IC50: 2.4 µM
Chorioallantoic membrane
  inhibition: Active
[3]
  IC50: > 100 µM

## O=C(Nc1ccc2c(/C=N/c3ncccn3)n[nH]c2c1)Nc1nccs1
[1]
  IC50: 12.8 µM
HT-29
  IC50: 78.6 µM
[2]
  IC50: 6.8 µM
MDA-MB-435
  IC50: 55.2 µM
A549
  IC50: 19.6 µM
Chorioallantoic membrane; dose or concentration not given here
  inhibition: 51.6%
[3]
  IC50: 15.4 µM

## CCN(CC)CCNC(=O)c1c(C)[nH]c(/C=C2\C(=O)Nc3ccc(F)cc32)c1C [SUNITINIB]
HT-29
  IC50: 1.7 µM
[2]
  IC50: 55.6 µM
MDA-MB-435
  IC50: 9.3 µM
A549
  IC50: 9.1 µM

## CC1CC(=O)NN=C1c1ccc(NC(=O)Nc2ccc3c(/C=N/c4nccs4)n[nH]c3c2)cc1 (stereo unspecified)
[1]
  IC50: 78 µM
HT-29
  IC50: 12.8 µM
[2]
  IC50: 5.6 µM
MDA-MB-435
  IC50: 22.7 µM
A549
  IC50: 8.9 µM
[3]
  IC50: 11.2 µM
